Measurements reported in ChEMBL document CHEMBL1121919, “13N-labeled L-amino acids for in vivo assessment of local myocardial metabolism” (J Med Chem, 1981).
Each block holds one compound with its values, some of them ahead of it.

What was measured:
Canis familiaris [1] = organism: Canis familiaris; experiment: Ischemic myocardial half-life measured after intracoronary injection of [13N]-labeled amino acid in dogs (control - 88+/-2); format: ADME, organism-based, Canis lupus familiaris, Myocardium; conditions: dog, in vivo, other
Canis familiaris [2] = organism: Canis familiaris; experiment: Ischemic myocardial residue fraction of [13N]-labeled amino acid was observed with a single pass uptake technique in open-chest instrumented dogs (control - 18.5+/-2.1); format: functional, Canis lupus familiaris
Canis familiaris [3] = organism: Canis familiaris; experiment: Ischemic myocardial residue fraction of [13N]-labeled amino acid was observed with a single pass uptake technique in open-chest instrumented dogs (control - 14+/-4.2); format: functional, Canis lupus familiaris
Canis familiaris [4] = organism: Canis familiaris; experiment: Ischemic myocardial half-life measured after intracoronary injection of [13N]-labeled amino acid in dogs (control - 147+/-12); format: ADME, organism-based, Canis lupus familiaris; conditions: dog, in vivo, other
Canis familiaris [5] = organism: Canis familiaris; experiment: Ischemic myocardial half-life measured after intracoronary injection of [13N]-labeled amino acid in dogs (control - 114.1+/-26.5); format: ADME, organism-based, Canis lupus familiaris, Myocardium; conditions: dog, in vivo, other
Canis familiaris [6] = organism: Canis familiaris; experiment: Ischemic myocardial residue fraction of [13N]-labeled amino acid was observed with a single pass uptake technique in open-chest instrumented dogs (control - 8.1+/-3.1); format: functional, Canis lupus familiaris
Canis familiaris [7] = organism: Canis familiaris; experiment: Ischemic myocardial half-life measured after intracoronary injection of [13N]-labeled amino acid in dogs (control - 15.9+/-0.2); format: ADME, organism-based, Canis lupus familiaris, Myocardium; conditions: dog, in vivo, other
Canis familiaris [8] = organism: Canis familiaris; experiment: Ischemic myocardial residue fraction of [13N]-labeled amino acid was observed with a single pass uptake technique in open-chest instrumented dogs (control - 17.3+/-6.1); format: functional, Canis lupus familiaris

- T1/2 (Canis familiaris [1]): 1.29 h
Structure (SMILES): C[C@H](N)C(=O)O [ALANINE]
- Residue fraction (Canis familiaris [2]): 19.5%

- T1/2 (Canis familiaris [4]): 2.87 h
Structure (SMILES): N[C@@H](CC(=O)O)C(=O)O [ASPARTIC ACID]
- Residue fraction (Canis familiaris [3]): 17%

- T1/2 (Canis familiaris [5]): 1.35 h
Structure (SMILES): N[C@@H](CCC(=O)O)C(=O)O [GLUTAMIC ACID]
- Residue fraction (Canis familiaris [6]): 11.5%

Structure (SMILES): NC(=O)CC[C@H](N)C(=O)O [GLUTAMINE]
- T1/2 (Canis familiaris [7]): 0.292 h
- Residue fraction (Canis familiaris [8]): 20.5%
